Assay results taken from patent publication US11116778B2, “Prodrugs of ALOX-15 inhibitors and methods of using the same” (EMPIRICO INC., priority 2019, dated 2021).
Read-outs that look alike come from different tables or passages of the source.

Assays:
[1] = Solubility assessment in water; type: physicochemical; conditions: for solubility: thermodynamic from solid
Method: Water was added slowly to 4.7 mg of compound 5 until 4.7 ml of water was added at which point the phosphate fully dissolved. The pH of the solution was estimated using litmus paper and estimated to be <3. Without a counterion, the molecular weight of the phosphate is 418 m. Therefore, at 1 mg/ml, the concentration is 2.4 mM.
For comparison, compound 3 is soluble to 0.4 μg/ml (Han et al FASEB J. 2017 31(2):491-504), which at a molecular weight of 308 is 1.3 μM.
Compound 5 was suspended in water (at weight to give a final concentration of 10 mM) and then 2 eq NaHCO3 was added.

[2] = test system: Human nasal epithelial primary cells (HNEpC); test: Levels of compound 5 and compound 3 in media of human nasal epithelial primary cells, LC-MS/MS; type: in vitro ADME; conditions: HNEpC treated with 5 μM or 1 μM compound 5
Method: (§1) Human nasal epithelial primary cells (HNEpC) (PromoCell GmbH, Heidelberg, Germany) were cultured according to the manufacturer in provided Primary Cell media in 24 well plates at a density of 25,000 cells per well. Cells were treated with 5 μM or 1 μM of compound 5 or vehicle only (water) in media containing 20 ng/mL IL-13 for 24 hours in a 37° C. cell culture incubator. The following day, media was replaced and fresh media containing 20 ng/mL IL-13 and compound 5 or vehicle was added to each well, then incubated again for 24 hours in a 37° C. cell culture incubator. The process was repeated once more for a 24-hour period.
To determine levels of arachidonic acid and linoleic acid metabolites after compound treatment, cell media was replaced with fresh Primary Cell media without IL-13. ALOX15 substrate (arachidonic acid or linoleic acid) was added to each well at a concentration of 1.5 μM and cells further incubated 37° C. for 1 hour. Media was collected from each well and quenched with an equal volume of LC/MS extraction buffer (methanol, 60 mM ascorbic acid, 0.1% acetic acid).
From the quenched media samples, compound 5 and compound 3 were also quantified. Compound 3 was quantified using LC-MS/MS (QTrap5500, Applied Biosystems). […] Compound 5 was quantified using LC-MS/MS (QTrap5500, Applied Biosystems). […]

[3] = target: T1, 15-lipoxygenase in primary peripheral blood eosinophils (Homo sapiens, UniProt P16050); test: Inhibition of 15-lipoxygenase in human primary eosinophils with short-term exposure, 15-HETE LC-MS/MS; conditions: 10 μM for 30 minutes, 3 μM arachidonic acid, 5 minutes
T1 sequence (P16050 1-662): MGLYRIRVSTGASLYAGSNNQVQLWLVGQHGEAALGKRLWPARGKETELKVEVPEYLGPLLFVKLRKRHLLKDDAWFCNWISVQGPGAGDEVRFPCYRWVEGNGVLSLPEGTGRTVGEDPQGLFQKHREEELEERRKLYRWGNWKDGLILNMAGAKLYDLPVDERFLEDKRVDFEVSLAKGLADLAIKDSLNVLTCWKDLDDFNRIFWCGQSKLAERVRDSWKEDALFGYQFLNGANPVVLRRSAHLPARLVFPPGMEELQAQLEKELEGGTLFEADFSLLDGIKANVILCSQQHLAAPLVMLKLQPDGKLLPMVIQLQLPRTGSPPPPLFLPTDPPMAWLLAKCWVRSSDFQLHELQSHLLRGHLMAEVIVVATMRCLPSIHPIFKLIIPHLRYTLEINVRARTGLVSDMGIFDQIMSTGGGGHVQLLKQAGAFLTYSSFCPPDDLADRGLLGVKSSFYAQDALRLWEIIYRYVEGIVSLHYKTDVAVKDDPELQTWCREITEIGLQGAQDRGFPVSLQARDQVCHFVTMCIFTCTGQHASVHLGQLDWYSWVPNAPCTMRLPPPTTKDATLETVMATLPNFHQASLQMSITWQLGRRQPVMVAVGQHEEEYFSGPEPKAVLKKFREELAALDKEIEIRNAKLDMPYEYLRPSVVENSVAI
Method: Two independent experiments were performed in which primary peripheral blood eosinophils (StemExpress) were thawed from frozen and allowed to recover in growth media for 4 hours at 37° C. […] Arachidonic acid was added to final concentration of 3 μM and experiment started. At 5 minutes post-treatment, the entire reaction was quenched with an equal volume of extraction buffer (methanol, 60 mM ascorbic acid, 0.1% acetic acid) and 15-HETE quantified. Briefly, 15-HETE was quantified using LC-MS/MS (QTrap5500, Applied Biosystems). […] Deuterated 15-HETE (Cayman Chemical) was used as the internal standard. […] Oxidized fatty acids were extracted using liquid/liquid extraction with acetonitrile as a diluent. Reverse chromatography was performed using a Unison UK-C18 column (Imtakt, 50×3 mm i.d., 3 μm, PN: UK-032) using a water/acetonitrile gradient containing 0.05% ammonium hydroxide and 0.1% formic acid.

[4] = test system: ALOX15 mRNA; test: ALOX15 mRNA by RT-qPCR in human nasal epithelial primary cells; type: cell-based; conditions: 5 μM or 1 μM, 3 x 24 hours with 20 ng/mL IL-13
Method: as §1
ALOX15 and POSTN mRNA levels were measured by RT-qPCR. […] The level of ALOX15 mRNA from each sample was measured in triplicate by real-time qPCR on an Applied Biosystems 7500 Fast Real-Time PCR machine using the TaqMan Gene Expression Assay for human ALOX15 (ThermoFisher, assay #Hs00993765_g1). The level of PPIA mRNA was measured in biplex reactions using TaqMan Gene Expression Assay (ThermoFisher, assay #Hs99999904_ml) and used to determine relative ALOX15 mRNA levels in each well using the delta-delta Ct method. […] Relative POSTN mRNA levels were measured as above using TaqMan Gene Expression Assay specific for human POSTN mRNA (ThermoFisher, assay #Hs00170815_m1). […]

With `O=C(Nc1ccc(F)cc1Cl)c1nn(COP(=O)(O)O)c(Cl)c1Cl` [compound 5, (4,5-dichloro-3-((2-chloro-4-fluorophenyl)carbamoyl)-1H-pyrazol-1-yl)methyl dihydrogen phosphate] the “pH of the solution” value ([1]; 1 mg/ml in water, estimated using litmus paper) was < 3, the “increase in water solubility above compound 3” value ([1]; disodium salt) was 7,200 fold and the “further increase in solubility as a sodium salt” value ([1]; disodium salt versus free phosphoric acid) was 4 fold. The “increase in water solubility over compound 3” value ([1]; free phosphoric acid) was ~1800 fold, the solubility ([1]; free phosphoric acid, 4.7 mg fully dissolved in 4.7 ml water, read-out: solubility in water) was 1000 µg/mL and the solubility ([1]; water with 2 eq NaHCO3, aqueous buffer, disodium salt, 2 eq NaHCO3 added, read-out: concentration in water giving a clear solution) was ≥ 10000 µM. For the same molecule, the solubility ([1]; water, free phosphoric acid, at 1 mg/ml, molecular weight 418, read-out: solubility in water, concentration) was 2400 µM, the “conversion of compound 5 to compound 3 in quenched media samples (FIG. 6)” value [2] was “majority of compound 5 was converted to compound 3” and the “less 15-HETE relative to cells treated with vehicle only (FIG. 3)” value ([3]; Experiment 1) was “approximately 79%”. For the same molecule, the “less 15-HETE relative to cells treated with vehicle only (FIG. 3)” value ([3]; Experiment 2) was 63% and the “relative level of ALOX15 mRNA versus vehicle (FIG. 7)” value [4] was “lower”.
